{
  "source": "patent US8754047B2",
  "about": "“Peptide compositions and methods of use” (The Research Foundation for the State University of New York, priority 2008, dated 2014)",
  "key": {"[1]": {"system": "MCF7 breast cancer cells", "details": "24 h", "protocol": "(§1) 10,000 HT29 or SW480 human colon cancer cells, BxPC-3 human pancreatic cancer cells, and MCF7 and MDA-MB-231 breast cancer cells were obtained from American Type Culture Collection (ATTC), Manassas, Va., and were seeded in separate 96-well plates. After treatment with various concentrations (6.25 μM, 12.5 μM, 25 μM, 50 μM, 100 μM, or 200 μM) of test peptide for 24 h, cells were stained with MTT (3-(4,5-Dimethyl-2-thiazolyl)-2,5-diphenyl-2H-tetrazolium bromide, from Sigma-Aldrich) following the instructions of the manufacturer. Before dissolving MTT in SDS, the HT29 and SW480 cells were photographed using a digital camera connected with a phase-contrast microscope. (FIG. 2A1-8, and FIG. 2B1-6). Cells that are alive convert MTT into formazan in their active mitochondria and appear dark purple; dead cells are not stained by MTT and appear colorless.\n(§2) The IC50 is the concentration of the test agent that inhibits cell growth by 50% at 24 hours of exposure. IC50s were determined using the MTT assay or using the cell Titer-Glo method and following the instructions of the manufacturer ([…]). […] (Sun, Y., and Rigas, B., (2008), Cancer Res., 68(20): 8269-8277)."}, "[2]": {"system": "MDA-MB-231 breast cancer cells", "details": "24 h", "protocol": "as §1, §2"}, "[3]": {"system": "BxPC-3 human pancreatic cancer cells", "details": "24 h", "protocol": "as §1, §2"}, "[4]": {"system": "SW480 human colon cancer cells", "experiment": "Annexin V-FITC flow cytometry for apoptotic cells, SW480", "assay_type": "cell-based", "details": "24 hrs, 0 μM to 200 μM", "protocol": "SW480 human colon cancer cells and MCF7 breast cancer cells were grown following the instructions of American Type Culture Collection (ATCC, Monassas, Va.). The cells were treated with the test peptides (YJB01, YJB05, or YJB06) for 24 hrs at concentrations ranging from 0 μM, to 200 μM. After treatment, cells were trypsinized and stained with Annexin V-FITC (100× dilution) for 15 minutes. Annexin V-FITC fluorescence intensities were analyzed by FACSCaliber (BD Bioscience) following standard protocols. Annexin V (+) cells are apoptotic cells.\nWhen cells undergo apoptosis, the inner membrane phospholipid, phosphotidylserine (PS), flips to the outer membrane and can be recognized by the […]. The green FITC fluorescence can be determined by flow cytometry and thus Annexin V (+) cells are apoptotic cells.\nIn this study, SW480 human cancer cells and MCF7 breast cancer cells were grown following the instructions of American Type Culture Collection (ATCC, Monassas, Va.). The cells were treated with the test peptides (YJB01, YJB05, or YJB06) for 24 hrs at concentrations ranging from 0 μM, to 200 μM. After treatment cells were trypsinized and stained with Annexin V-FITC (100× dilution) for 15 minutes. Annexin V-FITC fluorescence intensities were analyzed by FACSCaliber (BD Bioscience) following standard protocols."}, "[5]": {"system": "SW480 human colon cancer cells", "experiment": "RONS levels by DCFDA probe, flow cytometry", "assay_type": "cell-based", "details": "1 hr, control 14.69", "protocol": "SW480 human colon cancer cells were grown following the instructions of American Type Culture Collection (ATCC, Monassas, Va.). The cells were treated with the test peptide YJB01 for 1 hr at either 20 μM or 100 μM. After treatment, cells were trypsinized and stained with DCFDA (10 μmol/L) for 30 minutes at 37° C. DCFDA fluorescence intensity was analyzed by FACSCaliber (BD Bioscience) following standard protocols. […] Thus, FIG. 6A indicates YJB01 induces RONS production in a concentration dependent manner.\nThe levels of RONS in SW480 and MCF-7 cells were evaluated using the methodology described in Rigas, B., and Y. Sun. (2008), using the general RONS probe, dichlorodihydrofluorescein diacetate (DCFDA). (Rigas, B., and Sun., Y., (2008), Br J Cancer 98:1157-1160).\nSW480 human colon cancer cells were grown following the instructions of American Type Culture Collection (ATCC, Monassas, Va.). The cells were treated with the test peptide YJB01 for 1 hr at either 20 μM or 100 μM. After treatment, cells were trypsinized and stained with DCFDA (10 μmol/L) for 30 minutes at 37°. DCFDA fluorescence intensity was analyzed by FACSCaliber (BD Bioscience) following standard protocols. […] Thus, FIG. 6A indicates YJB01 induces RONS production in a concentration dependent manner."}, "[6]": {"system": "MCF-7 human breast cancer cells", "experiment": "Flow cytometry forward/side scatter, proportion of dead cells, MCF7", "assay_type": "cell-based", "details": "200 μM, 24 hr", "protocol": "SW480 human colon cancer cells and MCF7 breast cancer cells were grown following the instructions of American Type Culture Collection (ATCC, Monassas, Va.). The cells were treated with the test peptides (YJB01, YJB05, or YJB06) for 24 hrs at concentrations ranging from 0 μM, to 200 μM and subjected to flow cytometric analysis following standard protocols.\nSW480 human colon cancer cells and MCF7 breast cancer cells were grown following the instructions of American Type Culture Collection (ATCC, Monassas, Va.). The cells were treated with the test peptides for 24 hrs at concentrations ranging from 0 μM, to 200 μM and subjected to flow cytometry analysis following standard protocols. […] The circumscribed (gated, outlined) areas in the figure indicate dead cells; dead cells generally have higher density (side scatter) and smaller size (forward scatter) than living cells."}, "[7]": {"system": "SW480 human colon cancer cell xenografts", "experiment": "In vivo xenograft assay of tumor size, SCID mice", "details": "100 μg intraperitoneally once a day, 10 days, one mouse", "protocol": "Immunodeficient SCID mice (from Jackson Lab) were transplanted subcutaneously to their flank with 1.5 million SW480 human colon cancer cells. After the tumor size reached 120-150 mm^3, one mouse was treated with 100 μg YJB01 peptide injected intraperitoneally once a day, and the other one was treated with DMSO as a vehicle control. The tumor size was measured every two days (see FIG. 3A and FIG. 3B). The tumor volume was calculated based on its length (L) and width (W) using the formula Tumor volume=LW(L+W/2)0.56. (Rigas, B., and Kozoni, V., (2008) International Journal of Oncology, 32: 97-100). On the 10th day of treatment, the tumor volume was determined, the SCID mice were sacrificed and the tumors were excised and their weight was recorded (FIG. 3B)."}},
  "note": "Where “and” joins values, the source holds several entries; their conditions need not be identical. Equal values may be shown once. Positions of bridges follow the written chain, without caps; N, C: chain ends. Residues, ends and D or L forms follow the SMILES beside them.",
  "data": [
    {"smiles": "CC[C@H](C)[C@H](NC(=O)[C@H](CCCCN)NC(=O)[C@@H](NC(=O)[C@H](CCC(N)=O)NC(=O)[C@H](CCCNC(=N)N)NC(=O)[C@@H]1CCCN1C(=O)[C@H](CCCCN)NC(=O)[C@@H]1CSSC[C@H](NC(=O)[C@H](Cc2c[nH]c3ccccc23)NC(=O)[C@@H](NC(=O)[C@H](C)N)[C@@H](C)O)C(=O)NCC(=O)N2CCC[C@H]2C(=O)N1)[C@@H](C)CC)C(=O)N[C@@H](Cc1c[nH]c2ccccc12)C(=O)N[C@@H](Cc1ccccc1)C(=O)N[C@@H](CCC(N)=O)C(=O)N[C@@H](CC(N)=O)C(=O)N[C@@H](CCCNC(=N)N)C(=O)N[C@@H](CCCNC(=N)N)C(=O)N[C@@H](CCSC)C(=O)N[C@@H](CCCCN)C(=O)N[C@@H](Cc1c[nH]c2ccccc12)C(=O)N[C@@H](CCCCN)C(=O)N[C@@H](CCCCN)C(=O)O", "note": "[YJB01] (H-ATWCGPCKPRQIKIWFQNRRMKWKK-OH; disulfide 4-7; N-terminus and C-terminus assumed)", "values": [
      {"measurement": "IC50", "setting": "[1]", "value": 68.9, "unit": "µM"},
      {"measurement": "IC50", "setting": "[2]", "value": 88, "unit": "µM"},
      {"measurement": "IC50", "setting": "[3]", "value": 109, "unit": "µM"},
      {"measurement": "apoptosis, Annexin V (+) cells, SW480", "setting": "[4]", "value": "cell killing effect"},
      {"measurement": "Geometric Mean of the fluorescence intensity of DCFDA", "setting": "[5]; 20 μM", "value": 19.05},
      {"measurement": "Geometric Mean of the fluorescence intensity of DCFDA", "setting": "[5]; 100 μM", "value": 29.6},
      {"measurement": "dead cells, MCF7", "setting": "[6]", "value": 72.12, "unit": "%"},
      {"measurement": "tumor growth at day 10 comparing with day 1", "setting": "[7]", "value": "−0.04% and −4%"}
    ]}
  ]
}
